Each structure is given as a SMILES string.

The text below walks through data of patent publication US10781426B2 (priority 2012, dated 2020).

The test system of one assay is HCoV EMC. Type of assay: cell-based.
Another assay relates to DPP4. In kind it is cell-based.

Consider `Nc1ncnc2c1ncn2[C@@H]1O[C@H](CO)[C@@H](O)[C@H]1O` [adenosine], for which, in the assay with HCoV EMC, the “cells' susceptibility to virus infection” value is reported as “reduces the cells' susceptibility to virus infection” and the virus replication result is “reduces virus replication”. For the same molecule, the DPP4 expression result with DPP4 is on record as “down regulates”.
